Where “and” joins values, the source holds several entries; their conditions need not be identical. Identical values can stand only once.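 Step 1: Grow cells in 96-well plates. Step 2: Expose to compound for 48 hours at 5 concentrations. Step 3: Interpolate endpoints linearly; if unreached, use highest concentration. GI50 is the concentration that inhibits growth by half. TGI: total growth inhibition.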
Legend:
Assay in all cases: NCI anticancer screen, dose series, 48 h
CCRF-CEM leukemia = system: CCRF-CEM leukemia
EKVX NSCLC = system: EKVX NSCLC
HCC-2998 colon = system: HCC-2998 colon
KM12 colon = system: KM12 colon
MDA-MB-435 = system: MDA-MB-435
SF-539 CNS = system: SF-539 CNS
SNB-75 CNS = system: SNB-75 CNS
SR leukemia = system: SR leukemia
SW-620 colon = system: SW-620 colon
T-47D breast = system: T-47D breast

Compound | GI50 (CCRF-CEM leukemia) [µM] | GI50 (EKVX NSCLC) [µM] | TGI (EKVX NSCLC) [µM] | GI50 (HCC-2998 colon) [µM] | TGI (HCC-2998 colon) [µM] | GI50 (KM12 colon) [µM] | TGI (KM12 colon) [µM] | GI50 (MDA-MB-435) [µM] | TGI (MDA-MB-435) [µM] | GI50 (SF-539 CNS) [µM] | TGI (SF-539 CNS) [µM] | GI50 (SNB-75 CNS) [µM] | TGI (SNB-75 CNS) [µM] | GI50 (SR leukemia) [µM] | TGI (SR leukemia) [µM] | GI50 (SW-620 colon) [µM] | TGI (SW-620 colon) | GI50 (T-47D breast) [µM] | TGI (T-47D breast) [µM] | TGI (CCRF-CEM leukemia)
Nc1nn2cc(F)cnc2c1C(=O)Nc1cncc(F)c1N1CCC(C(=O)N2CCN(C3COC3)CC2)CC1 | 0.0332 | 0.512 | > 100 | 0.0464 | > 100 | 0.369 | > 100 | 0.266 | 2.54 | 0.164 | 0.571 | 0.168 | 1.5 | 0.0619 | 0.894 | 1.51 | > 100 µM | 2.04 | > 100 | –
CCOC(=O)C(C#N)C1=CC(=O)C(=O)c2ccc(OC)cc21 (configuration not stated) | – | – | 51.8 | – | 29.8 | – | 41.3 | – | 35.4 | – | 33.5 | – | 58.5 | – | > 100 | – | 33.3 µM | – | 34.5 | > 100 µM
O=C(Nc1ccc(Br)cc1F)c1cc(F)ccc1O | 2.4 | 1.3 | 7.38 | 2.37 | 8.45 | 2.04 | 5.45 | 0.539 | 4.41 | 0.42 | 4.2 | 0.225 | 2.11 | 0.476 | > 100 | 0.805 | 15.4 µM | 0.511 | 5.59 | 13.9 µM
O=C(Nc1ccc(Nc2ccncc2)cc1)c1ccc([N+](=O)[O-])cc1 | 3.37 | 11.2 | > 61.2 | 2.77 | 12.3 | 4.23 | 17.3 | 5.47 | 21.2 | 3.58 | 13.2 | 4.26 | 20 | 2.32 | > 20.4 | 2.22 | 5.08 µM | 3.3 | 20 | –
O=C(Nc1ccc2ncccc2c1)Nc1ccc2ncccc2c1 | – | – | > 100 | – | > 100 | – | > 100 | – | > 100 | – | > 100 | – | > 100 | – | > 100 | – | > 100 µM | – | > 100 | > 100 µM
COC(=O)c1ccc2c(c1)nc(NC(=O)c1ccccc1)n2CCCc1ccccc1 | 1.86 | – | – | 30.6 | > 100 | 4.5 | > 100 | 3.4 | > 100 | 3.8 | > 100 | 18.6 | > 100 | 2.54 | > 100 | 4.03 | > 100 µM | 4.35 | > 100 | > 100 µM
C[N+](C)(C)CC1CCCc2ccccc2C1=O (configuration not stated) | 0.42 | – | 14.5 | – | 45 | 5.1 | 24.8 | – | 11 | 8.75 | 31.7 | – | 34.3 | – | 8.08 | – | 3.67 µM and 3.92 µM | 19.1 | – | 5.77 µM and 1.11 µM
Cn1c(I)c(C#CCO[Si](C)(C)C(C)(C)C)c(=O)[nH]c1=O | 1.92 | 17.5 | 32.8 | 18.6 | 34.7 | 25.9 | > 61.2 | 13.9 | 27.8 | 16.9 | 30.9 | 16.2 | 37.7 | 1.53 | 3.6 | 1.96 | 4.14 µM | 2.92 | 15 | 4.17 µM
CCOC(=O)C1=CN(C)C=C(C(=O)OCC)C1c1cc(Br)c(OCC)c(OC)c1 | > 100 | – | – | > 100 | > 100 | 35 | > 100 | > 100 | > 100 | > 100 | > 100 | 20.8 | > 100 | > 100 | > 100 | 67.2 | > 100 µM | 23.5 | > 100 | > 100 µM
Cc1cc(Cl)cc(OCCn2cc(F)cn2)c1-c1nc(N)nc2c1CN(C(=O)NCC(C)(F)F)C2 | 0.0507 | – | – | 0.315 | > 100 | 0.0508 | 0.459 | 0.0578 | > 100 | 0.181 | > 100 | – | > 100 | 0.0495 | > 100 | 0.043 | > 100 µM | 0.235 | > 100 | > 100 µM
COc1cc(OCc2cccc(-c3ccc(C(O)c4nccs4)cc3)c2C)cc(OC)c1C=O (configuration not stated) | 2.33 | 2.02 | 6.63 | 2.28 | 7.08 | 3.02 | 11 | 2.22 | 6.26 | 1.96 | 4.83 | – | – | 1.82 | 5.08 | 3.2 | 12.7 µM | 0.401 | 6.38 | 19.9 µM
COc1cccc(F)c1C(=O)c1cnc(NC2CCN(S(C)(=O)=O)CC2)nc1N | 2.51 | – | – | 4.75 | > 25 | 2.02 | > 20.7 | 2.48 | > 25 | 3.68 | 11.7 | 4.13 | 9.57 | 0.644 | > 11.8 | 0.781 | > 18.1 µM | 5.22 | 24.4 | > 25 µM
CC1(C)N=C(N)N=C(N)N1c1ccc(CCCCc2ccc(Cl)cc2S(=O)(=O)F)c(Cl)c1 | 0.372 | – | – | 1.15 | 21.2 | 0.551 | 14.4 | 0.474 | 16.1 | 0.539 | 6.76 | 1.39 | 23 | 0.271 | 26.2 | 0.234 | 14.1 µM | 1.87 | 7.56 | 8.16 µM
CC(C)C1=CC23CCC4C(C)(C(=O)O)CCCC4(C)C2CC1C1C(=O)N(c2ccc(Cc4ccc(N5C(=O)C6C7CC8C9(C)CCCC(C)(C(=O)O)C9CCC8(C=C7C(C)C)C6C5=O)cc4)cc2)C(=O)C13 (configuration not stated) | – | – | 24.9 | – | 21.7 | – | 20.2 | – | 13.3 | – | 20.1 | – | – | – | 28 | – | 31.2 µM | – | 42.6 | 38.5 µM

Reference: PubChem BioAssay (NCI)
